The target of assay [1] is T1, human recombinant 15-PGDH (Homo sapiens, UniProt P15428).
T1 sequence (P15428 1-266): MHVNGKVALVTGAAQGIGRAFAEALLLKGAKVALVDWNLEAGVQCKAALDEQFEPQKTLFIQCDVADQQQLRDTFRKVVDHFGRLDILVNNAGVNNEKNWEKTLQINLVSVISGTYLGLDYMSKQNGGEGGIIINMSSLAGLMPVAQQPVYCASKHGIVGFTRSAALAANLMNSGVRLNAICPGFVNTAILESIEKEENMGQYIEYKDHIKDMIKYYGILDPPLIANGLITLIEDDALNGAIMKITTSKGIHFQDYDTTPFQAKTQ
Description: Recombinant 15-PGDH enzymatic inhibition assay (PGDH-Lumi, NADH signal). To be noted: recombinant 15-PGDH; 15 min pre-incubation, 60 min reaction with PGE2 and NAD+, NADH signal. The format is biochemical. As to the method:
These assays measured 15-PGDH enzymatic activity by quantifying the amount of NADH produced during a 60-minute reaction initiated by the addition of PGE2 and NAD+. Under the conditions of these experiments, the increase of NADH signal upon oxidation of PGE2 and reduction of NAD+ was linearly proportional to 15-PGDH enzymatic activity. The recombinant human, mouse, rat and dog 15-PGDH enzymatic assays were performed in a 25 μL volume of reaction buffer containing 50 mM Tris, pH 7.5, 0.01% Tween-20 and […] DTT in a 384-well microtiter plate. In concentration-response experiments with tested compounds, 22 concentrations from 2-fold serial dilutions in DMSO were pre-incubated with 15-PGDH for 15 minutes at room temperature. Then, PGE2 and β-NAD+ were added to initiate the 15-PGDH reaction. After 60 minutes at room temperature, the reaction was quenched and NADH signal was measured using a microtiter plate reader.
The following data (Table 27-1) provides the IC50 in μM of each compound for inhibiting enzymatic activity of the recombinant 15-PGDH in the assay described above.

For another assay, the target named is T2, 15-PGDH in A549 cells (Homo sapiens, UniProt P15428).
T2 construct: endogenous in cells; host or cells: A549
T2 sequence (P15428 1-266): T1 sequence (P15428 1-266)
Description: A549 cellular 15-PGDH assay (PGE2 accumulation, HTRF). The format is cell-based. The conditions noted are these: interleukin-stimulated, inhibitor 24 hrs, PGE2 by competitive HTRF, read-out: A549 Cell Assay IC50. From the text:
This assay was used for the quantification of IL-13 induced Native Prostaglandin E2 (PGE2) produced by A549 cells (epithelial cells from lung carcinoma) in cell culture supernatants. […] PGE2 was detected in a competitive HTRF assay by using anti PGE2 antibody labeled with Europium cryptate, and PGE2 labeled with […]. The PGE2 present in the sample competes with the binding between the two HTRF detection solutions (reagents) and thereby prevents FRET from occurring. The specific signal is inversely proportional to the PGE2 concentration. From this binding data, IC50 values were calculated.
In general terms: Time-resolved FRET reads energy transfer from a long-lived donor to a nearby acceptor.

For orientation: IC50 means the concentration needed to halve the response being measured. As to `Cn1cc2cc(-c3ccc4cc(C(O)[C@H]5CCOC5)sc4n3)cnc2n1` (single isomer, unassigned) [B19(RS)S], the IC50 in assay [1] amounted to 0.637 nM; at 15-PGDH in A549 cells, 1.03 nM.

As for `C[C@@H](O)c1cc2c(-c3ccnn3C)cc(-c3cnc4nn(C)cc4c3)nc2s1` (single isomer, unassigned) [Compound B6R], the concentration for half-maximal inhibition (IC50) in assay [1] is 1.84 nM; at 15-PGDH in A549 cells, 4.86 nM.

With `C[C@H](O)c1cc2c(-c3ccnn3C)cc(-c3cnc4nn(C)cc4c3)nc2s1` (single isomer, unassigned) [Compound B6S], the values for the half-maximal inhibitory concentration (IC50) (in assay [1]; at 15-PGDH in A549 cells) were 89.6 nM and 102 nM, respectively.

Regarding `Cn1cc2cc(-c3cc(C4CC4)c4cc(C(O)C5CCC5)sc4n3)cnc2n1` (single isomer, unassigned) [Compound B8, cyclobutyl(4-cyclopropyl-6-(2-methyl-2H-pyrazolo[3,4-b]pyridin-5-yl)thieno[2,3-b]pyridin-2-yl)methanol], the IC50 in assay [1] was 0.393 nM; at 15-PGDH in A549 cells, 0.919 nM.

As for `C[C@@H](O)c1cc2c(C3CC3)cc(-c3cnc4nn(C)cc4c3)nc2s1` (single isomer, unassigned) [Compound B11R], the IC50 came out at 3.42 nM in assay [1] and 26.9 nM on 15-PGDH in A549 cells.

Regarding `CC[C@@H](O)c1cc2c(C3CC3)cc(-c3cnc4nn(C)cc4c3)nc2s1` (single isomer, unassigned) [Compound B13R], the IC50 in assay [1] is 0.57 nM; at 15-PGDH in A549 cells, 3.2 nM.

For `Cn1cc2cc(-c3ccc4cc([C@H](O)C5CC5)sc4n3)cnc2n1` (single isomer, unassigned) [Compound B16R], the half-inhibitory concentration (IC50) in assay [1] came out at 0.325 nM; at 15-PGDH in A549 cells it was 0.149 nM.

As to `Cn1cc2cc(-c3ccc4cc([C@@H](O)C5CC5)sc4n3)cnc2n1` (single isomer, unassigned) [Compound B16S], the figures for the half-maximal inhibitory concentration (IC50) (in assay [1]; on 15-PGDH in A549 cells) were 27 nM and 9.58 nM, respectively.

Take `Cn1cc2cc(-c3ccc4cc([C@H](O)[C@@H]5CCOC5)sc4n3)cnc2n1` (single isomer, unassigned) [Compound B19RR]: the figures for the IC50 (in assay [1]; on 15-PGDH in A549 cells) were 0.244 nM and 0.381 nM, respectively.

For the compound `Cn1cc2cc(-c3ccc4cc([C@@H](O)[C@@H]5CCOC5)sc4n3)cnc2n1` (single isomer, unassigned) [Compound B19SR], the values for the IC50 (in assay [1]; on 15-PGDH in A549 cells) were 1.87 nM and 3.53 nM, respectively.

As for `Cn1cc2cc(-c3ccc4cc([C@H](O)C(F)(F)F)sc4n3)cnc2n1` (single isomer, unassigned) [Compound B23R], the half-maximal inhibitory concentration (IC50) amounted to 0.422 nM in assay [1] and 0.389 nM at 15-PGDH in A549 cells.

Consider `CN1CCC(O)(c2cc3ccc(-c4cnc5nn(C)cc5c4)nc3s2)CC1` [Compound C7, 1-methyl-4-(6-(2-methyl-2H-pyrazolo[3,4-b]pyridin-5-yl)thieno[2,3-b]pyridin-2-yl)-4-piperidinol], for which the IC50 in assay [1] was determined as 2920 nM.

Turning to `Cn1cc2cc(-c3ccc4cc(C5(O)CCS(=O)(=O)CC5)sc4n3)cnc2n1` [Compound C8, 4-(6-(2-methyl-2H-pyrazolo[3,4-b]pyridin-5-yl)thieno[2,3-b]pyridin-2-yl)tetrahydro-2H-thiopyran-4-ol 1,1-dioxide], in assay [1], the IC50 was 67.7 nM.

For the compound `Cn1cc2cc(-c3ccc4cc(C(C)(C)O)sc4n3)cnc2n1` [Compound C9, 2-(6-(2-methyl-2H-pyrazolo[3,4-b]pyridin-5-yl)thieno[2,3-b]pyridin-2-yl)-2-propanol], in assay [1], the IC50 came out at 419 nM.

In the case of `CCC(C)(O)c1cc2ccc(-c3cnc4nn(C)cc4c3)nc2s1` (stereo not drawn) [Compound C10, 2-(6-(2-methyl-2H-pyrazolo[3,4-b]pyridin-5-yl)thieno[2,3-b]pyridin-2-yl)-2-butanol], the concentration for half-maximal inhibition (IC50) in assay [1] was found to be 195 nM.

As for `Cn1cc2cc(-c3ccc4cc(C(C)(O)C5CC5)sc4n3)cnc2n1` (stereo not drawn) [Compound C11, 1-cyclopropyl-1-(6-(2-methyl-2H-pyrazolo[3,4-b]pyridin-5-yl)thieno[2,3-b]pyridin-2-yl)ethanol], the IC50 in assay [1] was 101 nM.

Turning to `CN1CC(O)(c2cc3ccc(-c4cnc5nn(C)cc5c4)nc3s2)C1` [Compound C12, 1-methyl-3-(6-(2-methyl-2H-pyrazolo[3,4-b]pyridin-5-yl)thieno[2,3-b]pyridin-2-yl)-3-azetidinol], in assay [1], the concentration for half-maximal inhibition (IC50) was 7.27 nM.

On to `CN1CCCC(O)(c2cc3ccc(-c4cnc5nn(C)cc5c4)nc3s2)C1` (stereo not drawn) [Compound C13, 1-methyl-3-(6-(2-methyl-2H-pyrazolo[3,4-b]pyridin-5-yl)thieno[2,3-b]pyridin-2-yl)-3-piperidinol], for which the half-maximal inhibitory concentration (IC50) in assay [1] came to 761 nM.

With `CCC(O)(c1cc2ccc(-c3cnc4nn(C)cc4c3)nc2s1)C(F)(F)F` (stereo not drawn) [Compound C14, 1,1,1-trifluoro-2-(6-(2-methyl-2H-pyrazolo[3,4-b]pyridin-5-yl)thieno[2,3-b]pyridin-2-yl)-2-butanol], the half-inhibitory concentration (IC50) in assay [1] amounted to 555 nM.

Regarding `COCC(O)(c1cc2ccc(-c3cnc4nn(C)cc4c3)nc2s1)C(F)(F)F` (stereo not drawn) [Compound C16, 1,1,1-trifluoro-3-methoxy-2-(6-(2-methyl-2H-pyrazolo[3,4-b]pyridin-5-yl)thieno[2,3-b]pyridin-2-yl)-2-propanol], the concentration for half-maximal inhibition (IC50) in assay [1] turned out to be 235 nM.

For `Cn1cc2cc(-c3ccc4cc(C(O)(C5CC5)C(F)(F)F)sc4n3)cnc2n1` (stereo not drawn) [Compound C17, 1-cyclopropyl-2,2,2-trifluoro-1-(6-(2-methyl-2H-pyrazolo[3,4-b]pyridin-5-yl)thieno[2,3-b]pyridin-2-yl)ethanol], in assay [1], the IC50 worked out at 1260 nM.

`Cn1cc2cc(-c3ccc4cc(C5(O)COC5)sc4n3)cnc2n1` [Compound C18, 3-(6-(2-methyl-2H-pyrazolo[3,4-b]pyridin-5-yl)thieno[2,3-b]pyridin-2-yl)-3-oxetanol]: the half-maximal inhibitory concentration (IC50) in assay [1] was 12.9 nM.

With `Cn1cc2cc(-c3ccc4cc(C5(O)CCCC5)sc4n3)cnc2n1` [Compound C19, 1-(6-(2-methyl-2H-pyrazolo[3,4-b]pyridin-5-yl)thieno[2,3-b]pyridin-2-yl)cyclopentanol], in assay [1], the IC50 was found to be 40.6 nM.

With `Cn1cc2cc(-c3ccc4cc(C5(O)CCOC5)sc4n3)cnc2n1` (stereo not drawn) [Compound C20, 3-(6-(2-methyl-2H-pyrazolo[3,4-b]pyridin-5-yl)thieno[2,3-b]pyridin-2-yl)tetrahydro-3-furanol], the IC50 in assay [1] was determined as 86 nM.

For `Cn1cc2cc(-c3ccc4cc(C5(O)CCOCC5)sc4n3)cnc2n1` [Compound C22, 4-(6-(2-methyl-2H-pyrazolo[3,4-b]pyridin-5-yl)thieno[2,3-b]pyridin-2-yl)tetrahydro-2H-pyran-4-ol], the 50% inhibitory concentration (IC50) in assay [1] is 257 nM.

With `Cn1cc2cc(-c3cc(-c4ccnn4C)c4cc(C(O)(C5CCC5)C(F)(F)F)sc4n3)cnc2n1` (stereo not drawn) [Compound C24, 1-cyclobutyl-2,2,2-trifluoro-1-(6-(2-methyl-2H-pyrazolo[3,4-b]pyridin-5-yl)-4-(1-methyl-1H-pyrazol-5-yl)thieno[2,3-b]pyridin-2-yl)ethanol], in assay [1], the IC50 came to 230 nM.

Take `O=C1NCc2cc(-c3ncc4cc([C@]5(O)C[C@@H](C(F)(F)F)C5)sc4n3)cnc21` [Compound C128C, 3-(6-(cis-1-hydroxy-3-(trifluoromethyl)cyclobutyl)thieno[2,3-d]pyrimidin-2-yl)-5,6-dihydro-7H-pyrrolo[3,4-b]pyridin-7-one]: the IC50 in assay [1] stood at 0.62 nM.

For `O[C@]1(c2cc3cnc(-c4cnc5nncn5c4)nc3s2)C[C@H](C(F)(F)F)C1` [Compound C129C, cis-1-(2-([1,2,4]triazolo[4,3-a]pyrimidin-6-yl)thieno[2,3-d]pyrimidin-6-yl)-3-(trifluoromethyl)cyclobutanol], in assay [1], the IC50 was determined as 3.5 nM.

The record behind these values is patent US20240409557A1, “5,6-FUSED AND 6,6-FUSED BICYCLIC ALCOHOLS AND ETHERS AND COMPOSITIONS FOR USE AS 15-PROSTAGLANDIN DEHYDROGENASE MODULATORS” (AMGEN INC., priority 2023, published 2024).
